Test [1] concerns the target Bone morphogenetic protein receptor type-1B (Homo sapiens, UniProt O00238). Briefly: Selectivity interaction (LanthaScreen Eu Kinase Binding Assay) EUB0001632a BMPR1B. The following applies: at 10 µM. In general terms: Time-resolved FRET reads energy transfer from a long-lived donor to a nearby acceptor.
Test [2] concerns RAF proto-oncogene serine/threonine-protein kinase (Homo sapiens), P04049 [Y340D,Y341D]. As to the kind of experiment: Selectivity interaction (LanthaScreen Eu Kinase Binding Assay) EUB0001632a RAF1. The following applies: at 10 µM.
Chain of RAF proto-oncogene serine/threonine-protein kinase (Homo sapiens), P04049 [Y340D,Y341D] (P04049 whole entry Y340D/Y341D): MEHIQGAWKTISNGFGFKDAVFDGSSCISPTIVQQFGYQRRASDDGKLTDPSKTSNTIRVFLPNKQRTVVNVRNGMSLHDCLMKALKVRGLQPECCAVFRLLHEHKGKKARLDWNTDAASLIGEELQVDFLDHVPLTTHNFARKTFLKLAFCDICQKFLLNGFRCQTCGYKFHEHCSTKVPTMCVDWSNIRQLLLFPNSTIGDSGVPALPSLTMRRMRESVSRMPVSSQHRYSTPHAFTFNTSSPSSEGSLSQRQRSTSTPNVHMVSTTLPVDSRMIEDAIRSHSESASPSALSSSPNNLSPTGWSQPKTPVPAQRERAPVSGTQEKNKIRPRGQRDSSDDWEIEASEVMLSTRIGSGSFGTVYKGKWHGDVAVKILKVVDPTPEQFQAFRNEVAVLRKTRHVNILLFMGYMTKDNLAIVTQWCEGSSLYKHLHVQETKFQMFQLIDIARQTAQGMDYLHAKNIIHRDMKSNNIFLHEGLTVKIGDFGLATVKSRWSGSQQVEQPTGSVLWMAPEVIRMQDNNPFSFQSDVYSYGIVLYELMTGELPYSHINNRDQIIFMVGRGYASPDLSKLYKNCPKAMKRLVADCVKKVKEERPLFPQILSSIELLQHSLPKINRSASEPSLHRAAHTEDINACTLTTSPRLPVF
Test [3] has as its target Serine/threonine-protein kinase Nek4 (Homo sapiens) (UniProt P51957). Briefly: Selectivity interaction (KinomeScan (DiscoverX)) EUB0000595a NEK4. As to conditions: at 10 µM.
The target in test [4] is Serine/threonine-protein kinase RIO2 (Homo sapiens) (UniProt Q9BVS4). As to the kind of experiment: Selectivity interaction (KinomeScan (DiscoverX)) EUB0000595a RIOK2. The following applies: at 10 µM.
Test [5] addresses Dual specificity protein kinase CLK4 (Homo sapiens, UniProt Q9HAZ1). As to conditions: at 10 µM.
The target of test [6] is Mitogen-activated protein kinase kinase kinase 20 (Homo sapiens) (UniProt Q9NYL2). The following applies: at 10 µM.
The target of test [7] is Tyrosine-protein kinase Srms (Homo sapiens) (UniProt Q9H3Y6). As to conditions: at 10 µM.
Chain of Tyrosine-protein kinase Srms (Homo sapiens) (Q9H3Y6 whole entry): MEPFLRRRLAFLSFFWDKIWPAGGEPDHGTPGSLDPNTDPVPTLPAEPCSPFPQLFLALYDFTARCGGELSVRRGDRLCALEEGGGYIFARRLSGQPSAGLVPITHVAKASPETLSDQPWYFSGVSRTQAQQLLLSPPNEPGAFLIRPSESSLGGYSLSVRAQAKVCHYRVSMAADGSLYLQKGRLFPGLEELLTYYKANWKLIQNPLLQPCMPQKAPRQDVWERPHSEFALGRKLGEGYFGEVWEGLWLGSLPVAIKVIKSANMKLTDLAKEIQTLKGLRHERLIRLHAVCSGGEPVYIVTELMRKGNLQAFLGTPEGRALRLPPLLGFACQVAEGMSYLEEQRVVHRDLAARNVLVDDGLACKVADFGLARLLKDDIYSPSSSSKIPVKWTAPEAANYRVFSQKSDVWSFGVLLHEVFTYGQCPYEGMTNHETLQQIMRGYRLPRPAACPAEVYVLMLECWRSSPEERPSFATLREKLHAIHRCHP
Test [8] concerns the target Mitogen-activated protein kinase 11 (Homo sapiens) (UniProt Q15759). As to the kind of experiment: Selectivity interaction (Kinase screening (Upstate/Millipore)) EUB0000604a MAPK11.
Test [9] deals with Cyclin-dependent kinase 14 (Homo sapiens) (UniProt O94921). Briefly: Selectivity interaction (ActivX KiNativ screen (kinase selectivity in THP-1 cell lysates)) EUB0000639a CDK14. The following applies: lysate, at 5 µM. It counts as subcellular.
In test [10] the target is MAP kinase-activated protein kinase 2 (Homo sapiens, UniProt P49137). Briefly: Selectivity interaction (ProQinase) EUB0000171b MAPKAPK2.
Chain of MAP kinase-activated protein kinase 2 (P49137 whole entry, looked up): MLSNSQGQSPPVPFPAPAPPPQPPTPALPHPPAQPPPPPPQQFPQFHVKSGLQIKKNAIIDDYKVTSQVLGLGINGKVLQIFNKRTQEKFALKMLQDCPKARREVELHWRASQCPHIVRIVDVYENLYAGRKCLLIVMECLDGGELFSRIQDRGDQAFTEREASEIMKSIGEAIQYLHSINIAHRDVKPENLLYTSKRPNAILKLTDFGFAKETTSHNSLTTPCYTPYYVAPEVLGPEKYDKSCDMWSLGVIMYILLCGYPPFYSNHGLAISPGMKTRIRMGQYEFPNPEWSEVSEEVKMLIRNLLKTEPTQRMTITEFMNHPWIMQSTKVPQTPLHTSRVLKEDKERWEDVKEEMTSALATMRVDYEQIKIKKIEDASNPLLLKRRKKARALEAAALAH
For test [11], the target named is STE20/SPS1-related proline-alanine-rich protein kinase (Homo sapiens) (UniProt Q9UEW8). Briefly: Selectivity interaction (Ambit KINOMEscan and KiNATiv profiling in Jurkat cells) EUB0000090b STK39. The following applies: at 1 µM. It counts as cell-based.
In test [12] the target is 5-hydroxytryptamine receptor 2A (Homo sapiens, UniProt P28223). As to the kind of experiment: Selectivity interaction (Panel of kinases, GPCRs, ion channels and transporters (enzymatic assay)) EUB0000223bCl HTR2A.
Chain of 5-hydroxytryptamine receptor 2A (P28223 whole entry): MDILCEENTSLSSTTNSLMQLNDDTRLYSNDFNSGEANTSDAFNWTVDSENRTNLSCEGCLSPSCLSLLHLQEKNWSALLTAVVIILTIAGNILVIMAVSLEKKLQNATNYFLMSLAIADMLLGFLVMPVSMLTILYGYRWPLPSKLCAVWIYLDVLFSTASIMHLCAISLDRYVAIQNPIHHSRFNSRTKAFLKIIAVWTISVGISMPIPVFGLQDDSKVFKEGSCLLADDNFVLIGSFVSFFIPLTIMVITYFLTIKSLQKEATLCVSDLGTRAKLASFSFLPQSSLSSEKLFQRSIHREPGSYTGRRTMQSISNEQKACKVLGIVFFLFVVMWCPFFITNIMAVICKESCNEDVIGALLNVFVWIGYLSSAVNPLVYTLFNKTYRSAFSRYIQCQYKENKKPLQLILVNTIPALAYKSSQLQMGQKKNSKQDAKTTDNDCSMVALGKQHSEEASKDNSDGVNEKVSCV
A further test addresses D(1A) dopamine receptor (Homo sapiens, UniProt P21728). Briefly: Selectivity interaction (Dopamine D1 - cAMP agonist mode ) EUB0000877a DRD1.
Test [13] has as its target Casein kinase I isoform gamma-1 (Homo sapiens) (UniProt Q9HCP0). Briefly: Selectivity interaction (KinomeScan (DiscoverX)) EUB0000655a CSNK1G1. The following applies: at 10 µM.
The target in test [14] is Tyrosine-protein kinase BTK (Homo sapiens, UniProt Q06187). Briefly: Selectivity interaction (KinomeScan (DiscoverX)) EUB0001079a BTK. As to conditions: at 1 µM.
Chain of Tyrosine-protein kinase BTK (Q06187 whole entry): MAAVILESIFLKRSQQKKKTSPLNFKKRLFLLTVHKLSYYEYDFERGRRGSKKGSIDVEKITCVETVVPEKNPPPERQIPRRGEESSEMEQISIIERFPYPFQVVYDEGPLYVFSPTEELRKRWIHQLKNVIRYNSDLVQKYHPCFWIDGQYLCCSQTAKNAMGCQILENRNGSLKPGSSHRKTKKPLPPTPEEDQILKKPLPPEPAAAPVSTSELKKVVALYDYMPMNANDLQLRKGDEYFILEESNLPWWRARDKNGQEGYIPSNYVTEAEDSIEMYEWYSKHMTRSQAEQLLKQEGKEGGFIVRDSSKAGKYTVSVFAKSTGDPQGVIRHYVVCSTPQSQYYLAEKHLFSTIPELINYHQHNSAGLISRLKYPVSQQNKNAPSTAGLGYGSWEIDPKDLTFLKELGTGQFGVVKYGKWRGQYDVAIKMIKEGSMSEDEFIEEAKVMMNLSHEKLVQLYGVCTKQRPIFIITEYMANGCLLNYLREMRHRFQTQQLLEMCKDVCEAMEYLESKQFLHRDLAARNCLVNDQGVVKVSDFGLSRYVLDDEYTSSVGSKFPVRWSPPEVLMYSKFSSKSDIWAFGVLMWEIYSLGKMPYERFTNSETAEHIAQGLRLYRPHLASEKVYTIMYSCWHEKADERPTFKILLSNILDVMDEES
For test [15], the target named is T1, Serine/threonine-protein kinase TAO3 (Homo sapiens) (UniProt Q9H2K8).
T1 sequence (whole entry): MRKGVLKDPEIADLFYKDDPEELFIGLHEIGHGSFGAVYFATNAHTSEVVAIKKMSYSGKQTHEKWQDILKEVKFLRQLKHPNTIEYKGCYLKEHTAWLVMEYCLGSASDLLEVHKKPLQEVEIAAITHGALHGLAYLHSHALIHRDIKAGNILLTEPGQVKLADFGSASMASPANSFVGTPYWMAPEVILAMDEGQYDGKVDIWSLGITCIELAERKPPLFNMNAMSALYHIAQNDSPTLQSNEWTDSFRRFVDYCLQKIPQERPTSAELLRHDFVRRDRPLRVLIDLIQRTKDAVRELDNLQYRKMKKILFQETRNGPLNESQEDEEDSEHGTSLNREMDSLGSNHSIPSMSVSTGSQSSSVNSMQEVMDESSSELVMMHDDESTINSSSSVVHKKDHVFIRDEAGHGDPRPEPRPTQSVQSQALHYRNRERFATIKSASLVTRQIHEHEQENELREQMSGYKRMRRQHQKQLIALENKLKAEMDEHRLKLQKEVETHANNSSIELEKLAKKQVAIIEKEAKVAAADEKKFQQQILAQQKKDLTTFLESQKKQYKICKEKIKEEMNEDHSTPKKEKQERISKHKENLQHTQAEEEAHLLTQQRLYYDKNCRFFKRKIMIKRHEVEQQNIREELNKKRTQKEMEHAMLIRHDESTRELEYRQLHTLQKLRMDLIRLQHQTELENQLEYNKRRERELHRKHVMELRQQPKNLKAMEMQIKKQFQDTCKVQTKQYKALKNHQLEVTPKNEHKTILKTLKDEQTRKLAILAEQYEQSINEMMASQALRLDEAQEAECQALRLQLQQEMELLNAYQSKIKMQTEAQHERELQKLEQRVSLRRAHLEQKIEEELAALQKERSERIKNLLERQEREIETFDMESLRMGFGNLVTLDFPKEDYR
Briefly: Selectivity interaction (KinomeScan (DiscoverX)) EUB0001079a TAOK3. As to conditions: at 1 µM.

Test [16] deals with Mitotic checkpoint serine/threonine-protein kinase BUB1 (Homo sapiens, UniProt O43683). Briefly: Selectivity interaction (KinomeScan (DiscoverX)) EUB0000229b BUB1. The following applies: at 10 µM.
The target of test [17] is T2, Mitogen-activated protein kinase kinase kinase 2 (Homo sapiens) (UniProt Q9Y2U5).
T2 sequence (whole entry): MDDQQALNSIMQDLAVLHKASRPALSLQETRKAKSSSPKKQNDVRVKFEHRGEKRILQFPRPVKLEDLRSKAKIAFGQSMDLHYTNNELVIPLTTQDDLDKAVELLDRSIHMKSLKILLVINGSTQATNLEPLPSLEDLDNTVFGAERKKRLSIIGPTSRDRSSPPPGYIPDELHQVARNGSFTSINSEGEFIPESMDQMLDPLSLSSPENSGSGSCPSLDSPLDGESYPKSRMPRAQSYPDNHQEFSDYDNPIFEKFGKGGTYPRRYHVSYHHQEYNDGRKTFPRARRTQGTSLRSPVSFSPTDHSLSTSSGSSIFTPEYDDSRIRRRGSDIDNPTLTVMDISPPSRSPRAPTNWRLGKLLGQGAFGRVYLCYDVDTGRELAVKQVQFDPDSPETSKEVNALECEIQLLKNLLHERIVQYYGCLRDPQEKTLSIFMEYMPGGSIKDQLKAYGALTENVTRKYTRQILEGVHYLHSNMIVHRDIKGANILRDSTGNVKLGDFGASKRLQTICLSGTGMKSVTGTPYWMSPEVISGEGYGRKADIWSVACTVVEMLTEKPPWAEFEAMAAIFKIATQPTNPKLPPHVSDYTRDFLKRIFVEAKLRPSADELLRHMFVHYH
Briefly: Selectivity interaction (Kinase panel (KiNativ target engagement assay in Jurkat cells)) EUB0001635a MAP3K2. It counts as cell-based. The following applies: at 1 µM.

Each structure is given as a SMILES string.

The term IC50 denotes the concentration that gives 50% inhibition.

Chain of Serine/threonine-protein kinase Nek4 (Homo sapiens) (P51957 whole entry, looked up): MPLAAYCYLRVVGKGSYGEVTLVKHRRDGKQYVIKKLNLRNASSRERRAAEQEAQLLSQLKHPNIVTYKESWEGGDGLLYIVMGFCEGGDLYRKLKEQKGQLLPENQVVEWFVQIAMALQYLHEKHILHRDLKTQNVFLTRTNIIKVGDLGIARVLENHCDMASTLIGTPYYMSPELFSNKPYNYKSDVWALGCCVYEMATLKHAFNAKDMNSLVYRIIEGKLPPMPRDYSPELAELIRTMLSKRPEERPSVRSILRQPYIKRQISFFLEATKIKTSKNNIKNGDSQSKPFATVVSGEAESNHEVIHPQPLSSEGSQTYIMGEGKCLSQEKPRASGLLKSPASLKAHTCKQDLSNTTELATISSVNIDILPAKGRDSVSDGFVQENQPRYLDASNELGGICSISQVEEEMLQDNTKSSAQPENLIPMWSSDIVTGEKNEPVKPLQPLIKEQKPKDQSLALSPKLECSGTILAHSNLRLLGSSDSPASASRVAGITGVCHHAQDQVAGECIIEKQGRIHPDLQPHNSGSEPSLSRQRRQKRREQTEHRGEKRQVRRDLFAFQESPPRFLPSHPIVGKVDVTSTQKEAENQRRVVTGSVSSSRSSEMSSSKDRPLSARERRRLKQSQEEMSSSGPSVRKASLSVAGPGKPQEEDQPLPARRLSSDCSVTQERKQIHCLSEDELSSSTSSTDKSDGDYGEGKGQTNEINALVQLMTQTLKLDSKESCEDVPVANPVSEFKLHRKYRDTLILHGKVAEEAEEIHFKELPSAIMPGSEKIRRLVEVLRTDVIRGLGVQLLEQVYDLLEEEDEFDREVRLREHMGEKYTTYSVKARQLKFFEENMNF
Chain of Dual specificity protein kinase CLK4 (Q9HAZ1 whole entry, looked up): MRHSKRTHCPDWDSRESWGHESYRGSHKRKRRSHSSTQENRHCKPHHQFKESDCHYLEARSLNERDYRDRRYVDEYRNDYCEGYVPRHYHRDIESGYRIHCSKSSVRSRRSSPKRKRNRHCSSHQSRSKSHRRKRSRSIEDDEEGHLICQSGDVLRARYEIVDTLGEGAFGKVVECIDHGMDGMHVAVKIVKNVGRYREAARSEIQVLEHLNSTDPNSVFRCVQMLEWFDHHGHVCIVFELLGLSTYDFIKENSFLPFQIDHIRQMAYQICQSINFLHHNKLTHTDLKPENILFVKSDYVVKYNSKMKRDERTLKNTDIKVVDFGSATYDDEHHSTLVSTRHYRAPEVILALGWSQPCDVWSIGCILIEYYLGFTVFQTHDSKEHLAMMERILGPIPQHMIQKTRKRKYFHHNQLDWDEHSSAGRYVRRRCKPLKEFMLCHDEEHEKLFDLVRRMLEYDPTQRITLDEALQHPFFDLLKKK
Chain of Mitogen-activated protein kinase 11 (Homo sapiens) (Q15759 whole entry): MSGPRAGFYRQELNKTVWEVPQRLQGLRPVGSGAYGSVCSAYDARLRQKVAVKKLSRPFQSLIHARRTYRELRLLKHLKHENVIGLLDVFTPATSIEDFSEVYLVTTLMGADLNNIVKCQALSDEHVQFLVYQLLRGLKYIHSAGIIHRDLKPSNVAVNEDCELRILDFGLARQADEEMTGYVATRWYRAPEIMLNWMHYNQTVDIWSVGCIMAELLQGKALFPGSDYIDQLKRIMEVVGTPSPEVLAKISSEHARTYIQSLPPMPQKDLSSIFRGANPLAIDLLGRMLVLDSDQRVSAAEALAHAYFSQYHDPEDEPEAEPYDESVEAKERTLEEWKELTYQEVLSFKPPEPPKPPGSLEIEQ
Chain of D(1A) dopamine receptor (P21728 whole entry, canonical isoform): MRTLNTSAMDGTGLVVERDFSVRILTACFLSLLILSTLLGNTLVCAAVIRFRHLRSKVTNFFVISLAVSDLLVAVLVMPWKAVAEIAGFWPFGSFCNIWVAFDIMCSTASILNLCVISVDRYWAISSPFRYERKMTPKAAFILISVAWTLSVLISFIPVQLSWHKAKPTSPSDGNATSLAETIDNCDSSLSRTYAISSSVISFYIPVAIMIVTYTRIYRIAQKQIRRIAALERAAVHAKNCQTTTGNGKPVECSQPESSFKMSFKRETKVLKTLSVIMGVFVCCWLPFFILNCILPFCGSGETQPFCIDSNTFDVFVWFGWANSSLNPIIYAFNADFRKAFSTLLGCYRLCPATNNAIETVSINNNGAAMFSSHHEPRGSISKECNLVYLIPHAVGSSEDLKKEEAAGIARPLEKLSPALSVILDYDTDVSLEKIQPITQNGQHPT

For the compound `Cn1cc(-n2cnc3c(NCc4nc5cc(Cl)c(Cl)cc5[nH]4)nc(N4CCOCC4)nc32)cn1`, the results for the % of inhibition in [1] and in test [2] were -57.7% and 5.65%, respectively.
As to `COCC(=O)NC/C=C/c1ccc2ncnc(Nc3ccc(Oc4ccc(C)nc4)c(C)c3)c2c1` [CP-724714], the % of control in test [3] and in [4] was 100% in each case.
With `CCN(CC)CCCCNc1ncc2cc(-c3cc(OC)cc(OC)c3)c(NC(=O)NC(C)(C)C)nc2n1`, the % of control in test [5] worked out at 100%.
For `Cc1cc([C@@H](C)Nc2ccccc2C(=O)O)c2nc(N3CCOCC3)cc(=O)n2c1` [AZD-6482], the % of control in [6] came out at 100%; in test [7] it was 63%.
Regarding `Cc1cnc(Nc2ccc(F)cc2Cl)nc1-c1c[nH]c(C(=O)N[C@H](CO)c2cccc(Cl)c2)c1`, in test [8], the % of inhibition worked out at 25%.
`CC[C@@H]1[C@H](F)C(=O)N[C@@H]1COc1nccc2cc(C(N)=O)c(OC)cc12` [ZIMLOVISERTIB]: the % of inhibition in test [9] stood at 12.8%.
For `C=CC(=O)Nc1cccc(C(=O)Nc2ccc(Nc3cc(-c4[nH]c(SC)nc4C)ccn3)cc2)c1`, the % of control in [10] (at 1 µM) was 71%; in test [10] (at 5 µM), 42%.
`CN(C)C/C=C/C(=O)Nc1ccc(C(=O)N2CCCC(Nc3ncc(Cl)c(-c4c[nH]c5ccccc45)n3)C2)cc1` (stereo not given) yielded a % of control in test [11] of 95%.
Regarding `COc1cc(C(=O)N2CC[C@@H](O)[C@@H](N)C2)cc2nc(-c3cc4ccccc4n3CC3CC3)n(C)c12`, the pXC50 in test [12] was under 4.4 M.
`CCC(=O)N1CC[C@H](Nc2ncnc3c2CN(c2cnc(OC)c(C(F)(F)F)c2)CC3)C1` [LENIOLISIB] gave an IC50 on D(1A) dopamine receptor of over 30 µM.
In turn, `CN(C)CCOc1ccc(-c2nc(-c3ccncc3)c(-c3ccc4c(c3)CC/C4=N\O)[nH]2)cc1` had a % of control in [13] of 81%.
For the compound `Nc1cnc(N2CCc3cc(S(=O)(=O)Nc4c(F)cc(Cl)cc4F)cc(N4CCCC4=O)c32)nc1` [TP-020n], the values for the % of control in test [14] and in test [15] were 100% and 70%, respectively.
`COc1cc(N(C)c2ccnc3ccc(C(F)(F)F)cc23)cc(OC)c1OC`: in test [16], the % binding is 98%.
Regarding `C=CC(=O)Nc1ccc(C(=O)Nc2[nH]nc3c2CN(C(=O)N[C@H](CN(C)C)c2ccccc2)C3(C)C)cc1`, the % of engagement in test [17] (Selectivity number of off-targets 0.0, Selectivity number of targets 233.0, Source Knowledge https://www.sciencedirect.com/science/article/pii/S2451945619300674?via%3Dihub) was -1.5%; in test [17], -1.9%.

(Values after ChEMBL document CHEMBL5465560, “Selectivity Literature for EUbOPEN Chemogenomic Library” (2024).)
